Experimental data from patent publication US20250127906A1, “SMALL-MOLECULE DEGRADERS OF CDK8 AND CDK19” (University of South Carolina, priority 2021, published 2025).

What was measured:
CDK19 [1] = target: CDK19 (Homo sapiens, UniProt Q9BWU1); test: CDK19 degradation in HEK-293 cells with CRISPR knockout of CCNC; format: cell-based; set-up: a derivative of HEK-293cells with CRISPR-mediated knockout of CCNC; endogenous in cells; host or cells: HEK-293 with CRISPR knockout of CCNC; settings: HEK-293 CCNC-knockout cells, 24 hr treatment
Chain of CDK19 (Homo sapiens, UniProt Q9BWU1) (Q9BWU1 whole entry): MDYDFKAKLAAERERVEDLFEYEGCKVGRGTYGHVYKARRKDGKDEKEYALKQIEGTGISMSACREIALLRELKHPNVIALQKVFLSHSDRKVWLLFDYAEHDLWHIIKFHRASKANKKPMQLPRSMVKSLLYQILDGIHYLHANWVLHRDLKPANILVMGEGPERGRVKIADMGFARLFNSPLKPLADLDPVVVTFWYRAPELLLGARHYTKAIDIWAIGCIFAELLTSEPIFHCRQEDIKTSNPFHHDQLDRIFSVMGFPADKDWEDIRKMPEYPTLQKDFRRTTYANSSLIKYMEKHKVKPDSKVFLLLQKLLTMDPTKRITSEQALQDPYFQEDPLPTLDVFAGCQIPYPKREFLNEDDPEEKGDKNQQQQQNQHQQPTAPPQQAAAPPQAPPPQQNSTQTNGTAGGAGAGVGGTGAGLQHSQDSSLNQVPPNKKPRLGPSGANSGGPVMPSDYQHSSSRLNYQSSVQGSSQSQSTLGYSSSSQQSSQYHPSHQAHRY
Source text: (§1) This cell line, however, is unique in lacking Cyclin C (CCNC), the binding partner of CDK8/19. To test if the absence of CDK8-bound CCNC was responsible for the loss of IA7843 CDK8-degrading activity, we have tested the effect of IA7843 on a derivative of HEK-293cells with CRISPR-mediated knockout of CCNC.

CDK8/19-regulated genes = test: QPCR of CDK8/19-regulated genes in HEK-293 wild-type and CDK8/19 double-knockout cells; format: cell-based, human; settings: for effect on expression of CDK8/19-regulated genes: 200 nM, 3-day treatment
Method: CDK8/19 act as transcriptional regulators, and therefore we tested the effects of 3-day treatment with 200 nM PROTAC IA7886 along with 200 nM CDK8/19 kinase inhibitor BI-1347 on a series of CDK8/19-regulated genes, using QPCR.
We have also compared the stability of transcriptional changes induced by a PROTAC and by a kinase inhibitor. In the experiment shown in FIG. 10A, HEK-293 cells were treated with 200 nM of BI-1347 or IA7886 for 3 days, and then the inhibitors were washed off and the restoration of transcriptional changes was monitored 24 hrs and 48 hrs after wash-off.

CDK8 [2] = target: T1, CDK8 (Mus musculus, UniProt Q8R3L8); test: CDK8 degradation in murine CT26 colon carcinoma cells; format: cell-based; set-up: endogenous in cells; host or cells: CT26
T1 sequence (Q8R3L8 1-464): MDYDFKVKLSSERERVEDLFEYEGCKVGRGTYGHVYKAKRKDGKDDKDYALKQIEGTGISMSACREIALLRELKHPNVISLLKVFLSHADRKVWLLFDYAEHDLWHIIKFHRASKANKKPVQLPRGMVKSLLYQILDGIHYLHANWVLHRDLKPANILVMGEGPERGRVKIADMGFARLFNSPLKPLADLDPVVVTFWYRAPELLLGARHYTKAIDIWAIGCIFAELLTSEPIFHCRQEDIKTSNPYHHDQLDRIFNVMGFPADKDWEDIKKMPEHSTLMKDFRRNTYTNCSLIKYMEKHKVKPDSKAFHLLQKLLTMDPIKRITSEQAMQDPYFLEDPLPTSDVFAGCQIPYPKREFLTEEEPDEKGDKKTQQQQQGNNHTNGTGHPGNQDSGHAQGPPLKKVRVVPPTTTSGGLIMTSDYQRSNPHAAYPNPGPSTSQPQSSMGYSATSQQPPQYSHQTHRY
T1 sequence (Q62447 1-283 partner): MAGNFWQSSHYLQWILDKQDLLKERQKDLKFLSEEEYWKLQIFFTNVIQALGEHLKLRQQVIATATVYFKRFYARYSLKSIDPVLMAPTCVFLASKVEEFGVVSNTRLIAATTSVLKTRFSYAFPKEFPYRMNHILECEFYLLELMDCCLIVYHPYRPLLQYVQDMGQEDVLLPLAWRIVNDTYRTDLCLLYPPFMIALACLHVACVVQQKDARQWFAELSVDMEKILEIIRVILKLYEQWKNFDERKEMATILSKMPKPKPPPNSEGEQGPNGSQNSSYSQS
Source text: (§2) Both the extent and the kinetics of CDK8 degradation were similar between two cell lines, with the degradation reaching maximum at about 8 hrs of PROTAC treatment.

CDK8 [3] = target: T2, CDK8 (Homo sapiens, UniProt P49336); test: CDK8 degradation in HEK-293 cells with CRISPR knockout of CCNC; format: cell-based; set-up: a derivative of HEK-293cells with CRISPR-mediated knockout of CCNC; endogenous in cells; host or cells: HEK-293 with CRISPR knockout of CCNC; settings: HEK-293 CCNC-knockout cells, 24 hr treatment
T2 sequence (P49336 whole entry): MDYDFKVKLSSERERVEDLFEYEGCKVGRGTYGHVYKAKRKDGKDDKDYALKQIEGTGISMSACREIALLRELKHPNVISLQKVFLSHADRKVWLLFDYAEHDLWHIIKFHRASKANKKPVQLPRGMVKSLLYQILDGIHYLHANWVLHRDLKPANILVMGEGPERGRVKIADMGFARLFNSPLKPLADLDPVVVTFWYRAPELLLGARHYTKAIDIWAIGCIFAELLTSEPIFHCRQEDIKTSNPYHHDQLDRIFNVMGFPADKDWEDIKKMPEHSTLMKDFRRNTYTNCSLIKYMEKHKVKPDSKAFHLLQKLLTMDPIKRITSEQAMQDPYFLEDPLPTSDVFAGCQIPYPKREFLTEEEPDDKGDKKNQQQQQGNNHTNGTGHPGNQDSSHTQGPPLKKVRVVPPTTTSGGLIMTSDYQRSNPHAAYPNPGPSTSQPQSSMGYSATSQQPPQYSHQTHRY
Source text: as §1

Jurkat cells = test: Wash-off growth study in Jurkat cells; format: cell-based, human; settings: pre-treated 200 nM for 8 days, then drug-free vs drug-containing media for 8 days
Method: We also compared the stability of short-term growth inhibition induced by a PROTAC and a kinase inhibitor in a wash-off study in Jurkat cells. In the experiment shown in FIG. 11C, Jurkat cells were pre-treated with 200 nM BI-1347 or IA7886 for 8 days before removal of drug-containing media and further cultured in either drug-containing (200 nM) or drug-free media for 8 days before counting cell numbers. Removal of BI-1347 led to 7.1 fold increase of the cell number while removal of IA7886 increased the cell number only 1.8 fold (FIG. 11C).

CDK8 [4] = target: T2, CDK8; test: CDK8 degradation in Loucy T-cell leukemia cells lacking Cyclin C; format: cell-based; set-up: endogenous in cells; host or cells: Loucy; settings: Loucy cells (lacking CCNC), 24 hr treatment
Source text: as §1

CDK19 [5] = target: T3, CDK19 (Canis lupus familiaris, UniProt A0A8I3NZB9); test: CDK19 degradation in canine Abrams osteosarcoma cells; format: cell-based
T3 construct: endogenous in cells; host or cells: Abrams (canine osteosarcoma)
T3 sequence (A0A8I3NZB9 1-502): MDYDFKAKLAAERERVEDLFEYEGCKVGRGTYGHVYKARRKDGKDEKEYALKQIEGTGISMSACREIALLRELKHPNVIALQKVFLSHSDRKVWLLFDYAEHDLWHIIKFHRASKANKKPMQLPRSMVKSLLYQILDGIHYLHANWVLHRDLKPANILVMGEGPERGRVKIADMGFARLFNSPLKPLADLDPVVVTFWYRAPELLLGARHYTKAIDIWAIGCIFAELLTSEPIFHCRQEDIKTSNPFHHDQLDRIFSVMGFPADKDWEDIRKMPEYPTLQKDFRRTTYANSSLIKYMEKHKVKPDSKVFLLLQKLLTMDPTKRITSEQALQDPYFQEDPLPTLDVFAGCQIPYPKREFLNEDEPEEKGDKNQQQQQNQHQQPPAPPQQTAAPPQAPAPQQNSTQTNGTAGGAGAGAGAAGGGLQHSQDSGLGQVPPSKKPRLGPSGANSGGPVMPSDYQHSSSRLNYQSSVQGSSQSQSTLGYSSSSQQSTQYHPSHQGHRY
Source text: as §2

O=C(CCCNc1cccc2c1C(=O)N(C1CCC(=O)NC1=O)C2=O)NCCCCCCCCCCC(=O)N1CCN(C(=O)Cn2cc(-c3ccc(-c4cncc5ccccc45)cc3)cn2)CC1 (stereo not shown) [IA7886, 4-[[2-(2,6-dioxo-3-piperidyl)-1,3-dioxo-isoindolin-4-yl]amino]-N-[11-[4-[2-[4-[4-(4-isoquinolyl)phenyl]pyrazol-1-yl]acetyl]piperazin-1-yl]-11-oxo-undecyl]butanamide]
CDK19 degradation (in words) (CDK19 [1]): efficiently degraded CDK8 and CDK19
effect on expression of CDK8/19-regulated genes (CDK8/19-regulated genes; CDK8/19 double-knockout (dKO) 293 cells): had no effect in dKO cells
stability of transcriptional changes after wash-off (CDK8/19-regulated genes; HEK-293, 200 nM for 3 days, then 24 hrs and 48 hrs after wash-off): maintained even 48 hrs after wash-off
effect on expression of CDK8/19-regulated genes (CDK8/19-regulated genes; wild-type HEK-293 cells): had similar effects on the expression of the tested genes
CDK8 degradation (in words) (CDK8 [2]): induce CDK8 degradation in both cell lines
time at which CDK8 degradation reaches maximum (CDK8 [2]; 100 nM): about 8 hrs
CDK8 degradation (in words) (CDK8 [3]): efficiently degraded CDK8 and CDK19
increase of the cell number upon removal of drug (Jurkat cells): 1.8 fold
CDK8 degradation (in words) (CDK8 [4]): efficiently degraded CDK8 and CDK19
CDK19 degradation (in words) (CDK19 [5]): induced CDK19 degradation in Abrams cells
